Laboratory results published in article PMC10357944 (RSC Medicinal Chemistry, 2023).

Legend:
T. cruzi trypomastigotes = system: T. cruzi trypomastigotes; set-up: method as in our previous work; conditions: ref our previous work; cited from earlier work
[1] = Mammalian toxicity in vitro, MTT colorimetric method; assay type: cell-based, Murine; conditions: mouse, NCTC clone 929 fibroblasts, pH 7.2, NCTC clone 929 cells, up to 200 μM
Protocol: The synthesized compounds were evaluated for their anti-L. (L.) infantum activity on intracellular amastigotes following 96 h treatment, with standard drug miltefosine used as a control. […] Leishmania (L.) infantum (MHOM/BR/1972/LD) amastigotes were obtained by differential centrifugation from golden hamsters (Mesocricetus auratus) spleens with 60–70 days of infection and the number of parasites was determined by the Stauber method.[18] Murine conjunctive fibroblasts NCTC clone 929 (ATCC) were maintained in RPMI-1640 medium supplemented with 10% FBS at pH 7.2 and 37 °C in a humidified incubator with 5% CO2. Peritoneal macrophages were by obtained by washing the peritoneal cavity of BALB/c mice with RPMI-1640 medium supplemented with 10% FBS, pH 7.2 and maintained at 37 °C in a humidified incubator with 5% CO2. NCTC cells (6 × 10^4/well) were added to 96-well plates and maintained at 37 °C in a 5% CO2 humidified incubator for 96 h with compounds serially diluted (1.6 to 200 μM). […] The determination of CC50 and IC50 values was performed by sigmoid dose–response curves using the Graph Pad Prism 5 software. The samples were tested in duplicate and the assays were reproduced at least twice.

[2] = system: Leishmania (L.) infantum intracellular amastigotes; test: Anti-L. (L.) infantum activity in vitro, intracellular amastigotes in peritoneal macrophages, infection index; assay type: cell-based; conditions: L. (L.) infantum intracellular amastigotes in BALB/c peritoneal macrophages, 96 h treatment, NA = inactive
Protocol: The synthesized compounds were evaluated for their anti-L. (L.) infantum activity on intracellular amastigotes following 96 h treatment, with standard drug miltefosine used as a control. […] Leishmania (L.) infantum (MHOM/BR/1972/LD) amastigotes were obtained by differential centrifugation from golden hamsters (Mesocricetus auratus) spleens with 60–70 days of infection and the number of parasites was determined by the Stauber method.[18] Murine conjunctive fibroblasts NCTC clone 929 (ATCC) were maintained in RPMI-1640 medium supplemented with 10% FBS at pH 7.2 and 37 °C in a humidified incubator with 5% CO2. Peritoneal macrophages were by obtained by washing the peritoneal cavity of BALB/c mice with RPMI-1640 medium supplemented with 10% FBS, pH 7.2 and maintained at 37 °C in a humidified incubator with 5% CO2. Peritoneal macrophages (1 × 10^5/well) were added in 16-well slide chambers (NUNC) and incubated overnight at 37 °C with 5% CO2. Subsequently, the cells were infected with L. (L.) infantum amastigotes (10 : 1 amastigotes/macrophage) for 24 h, treated with compounds serially diluted (6.25 to 50 μM) and incubated for 96 h at 37 °C with 5% CO2. Miltefosine was used as standard drug and untreated cells as a negative control. Slides were fixed with methanol, stained with Giemsa and observed under a light microscope.[19] […] The determination of CC50 and IC50 values was performed by sigmoid dose–response curves using the Graph Pad Prism 5 software. The samples were tested in duplicate and the assays were reproduced at least twice.

For `C=CCc1ccc(Oc2cc(CC=C)cc(OC)c2OCc2ccc(OC)cc2)c(OC)c1` [Compound 1], the “activity against T. cruzi trypomastigotes” value (T. cruzi trypomastigotes) is given as 4.0 ± 1.4 µM, the CC50 at 96 h [1] is given as > 200 µM and the “IC50 (μM) ± SD” value [2] is given as “inactive”.
In the case of `C=CCc1ccc(Oc2cc(CC=C)cc(OC)c2OCOC)c(OC)c1` [Compound 2], the CC50 at 96 h [1] is reported as > 200 µM.
With `C=CCc1ccc(Oc2cc(CC=C)cc(OC)c2OCCN2CCCC2)c(OC)c1` [Compound 4] the CC50 at 96 h [1] was 24.9 ± 2.6 µM and the IC50 ([2]; Peritoneal macrophage, 96 h) was 4.1 ± 1.1 µM.
`C=CCc1ccc(Oc2cc(CC=C)cc(OC)c2OCCN2CCOCC2)c(OC)c1` [Compound 5] showed a CC50 at 96 h [1] of 63.7 ± 0.2 µM and an IC50 ([2]; Peritoneal macrophage, 96 h) of 9.6 ± 3.6 µM.
With `C=CCc1ccc(Oc2cc(CC=C)cc(OC)c2OCC(=O)N2CCCC2)c(OC)c1` [Compound 6] the CC50 at 96 h [1] was 52.9 ± 15.2 µM and the IC50 ([2]; Peritoneal macrophage, 96 h) was 20.3 ± 5.9 µM.
With `C=CCc1ccc(Oc2cc(CC=C)cc(OC)c2OCC(=O)N2CCOCC2)c(OC)c1` [Compound 7] the CC50 at 96 h [1] was 112 ± 8.2 µM.
With `C=CCc1cc(OC)cc(Oc2ccc(CC=C)cc2OC)c1` [Compound 8] the CC50 at 96 h [1] was > 200 µM.
With `C=CCc1cc(OC)c(OCc2ccc(OC)cc2)c(Oc2ccccc2OC)c1` [Compound 9] the CC50 at 96 h [1] was > 200 µM and the IC50 ([2]; Peritoneal macrophage, 96 h) was 24.2 ± 18.2 µM.
For `C=CCc1ccc(Oc2cccc(OC)c2OCc2ccc(OC)cc2)c(OC)c1` [Compound 10], the CC50 at 96 h [1] was > 200 µM.
For `C=CCc1cc(OC)c(OC(C)=O)c(Oc2ccccc2OC)c1` [Compound 11], the CC50 at 96 h [1] was > 200 µM and the IC50 ([2]; Peritoneal macrophage, 96 h) was 32.7 ± 5 µM.
In the case of `C=CCc1ccc(Oc2cccc(OC)c2OC(C)=O)c(OC)c1` [Compound 12], the CC50 at 96 h [1] is reported as > 200 µM.
In the case of `C=CCc1cc(OC)c(OC)c(Oc2ccccc2OC)c1` [Compound 13], the CC50 at 96 h [1] is reported as > 200 µM.
For `C=CCc1ccc(Oc2cccc(OC)c2OC)c(OC)c1` [Compound 14], the CC50 at 96 h [1] was > 200 µM.
In the case of `C=CCc1cc(OC)c(O)c(Oc2ccccc2OC)c1` [Compound 15], the CC50 at 96 h [1] is reported as 31.6 ± 11.3 µM.
With `C=CCc1ccc(Oc2cccc(OC)c2O)c(OC)c1` [Compound 16] the CC50 at 96 h [1] was > 200 µM.
For `C=CCc1cc(OC)c(O)c(Oc2ccc(CCC)cc2OC)c1` [Compound 17], the CC50 at 96 h [1] was 42 ± 3.8 µM.
For `C=CCc1ccc(Oc2cc(CCC)cc(OC)c2O)c(OC)c1` [Compound 18], the CC50 at 96 h [1] was 14.2 ± 0.1 µM.
With `C=CCc1cc(OC)c(OC)c(Oc2ccc(CCC)cc2OC)c1` [Compound 19] the CC50 at 96 h [1] was > 200 µM.
In the case of `C=CCc1cc(OC)c(OCc2ccc(OC)cc2)c(Oc2ccc(CCC)cc2OC)c1` [Compound 20], the CC50 at 96 h [1] is reported as > 200 µM.
In the case of `C=CCc1ccc(Oc2cc(CCC)cc(OC)c2OCc2ccc(OC)cc2)c(OC)c1` [Compound 21], the CC50 at 96 h [1] is reported as > 200 µM.
With `CCCc1ccc(Oc2cc(CCC)cc(OC)c2OCc2ccc(OC)cc2)c(OC)c1` [Compound 22] the CC50 at 96 h [1] was > 200 µM.
Molecule `C=CCc1cc(OC)c(OCc2ccc(OC)cc2)c(Oc2ccc(CN3CCCC3)cc2OC)c1` [Compound 23] has a CC50 at 96 h [1] of 6.2 ± 1.2 µM.
For `C=CCc1cc(OC)c(OCc2ccc(OC)cc2)c(Oc2ccc(CN3CCOCC3)cc2OC)c1` [Compound 24], the CC50 at 96 h [1] was > 200 µM and the IC50 ([2]; Peritoneal macrophage, 96 h) was 9.7 ± 2 µM.
For `CCCc1cc(OC)c(OCc2ccc(OC)cc2)c(Oc2ccc(CN3CCOCC3)cc2OC)c1` [Compound 25], the CC50 at 96 h [1] was 74.4 ± 4.4 µM and the IC50 ([2]; Peritoneal macrophage, 96 h) was 7.7 ± 0.8 µM.
`CCCc1cc(OC)c(OCc2ccc(OC)cc2)c(Oc2ccc(CN3CCCCC3)cc2OC)c1` [Compound 26] showed a CC50 at 96 h [1] of 14.5 ± 0.2 µM, an IC50 [2] of 3.7 ± 0.5 µM and an IC50 ([2]; Peritoneal macrophage, 96 h) of ~3 µM.
In the case of `COc1ccc(COc2c(OC)cc(CN3CCOCC3)cc2Oc2ccc(CN3CCOCC3)cc2OC)cc1` [Compound 27], the CC50 at 96 h [1] is reported as 74.4 ± 5.8 µM and the IC50 ([2]; Peritoneal macrophage, 96 h) is reported as 27.8 ± 7.4 µM.
With `CCCc1ccc(Oc2cc(CN3CCOCC3)cc(OC)c2OCc2ccc(OC)cc2)c(OC)c1` [Compound 28] the CC50 at 96 h [1] was > 200 µM and the IC50 ([2]; Peritoneal macrophage, 96 h) was 16.4 ± 4.3 µM.
With `CCCc1ccc(Oc2cc(CN3CCOCC3)cc(OC)c2OCc2ccc(C(F)(F)F)cc2)c(OC)c1` [Compound 29] the CC50 at 96 h [1] was > 200 µM and the IC50 ([2]; Peritoneal macrophage, 96 h) was 13.2 ± 2.1 µM.
In the case of `CCCc1ccc(Oc2cc(CN3CCOCC3)cc(OC)c2OCc2cc(OC)c(OC)c(OC)c2)c(OC)c1` [Compound 30], the CC50 at 96 h [1] is reported as > 200 µM and the IC50 ([2]; Peritoneal macrophage, 96 h) is reported as 26.3 ± 3.2 µM.
With `C=CCc1cc(OC)c(O)c(Oc2ccc(CN3CCOCC3)cc2OC)c1` [Compound 31] the CC50 at 96 h [1] was 51.4 ± 4.7 µM and the “IC50 (μM) ± SD” value [2] was “no anti-parasitic activity”.
In the case of `C=CCc1cc(OC)c(O)c(Oc2ccc(CN3CCCC3)cc2OC)c1` [Compound 32], the CC50 at 96 h [1] is reported as 43.3 ± 5.3 µM and the “IC50 (μM) ± SD” value [2] is reported as “no anti-parasitic activity”.
With `CCCc1ccc(Oc2cc(CN3CCCCC3)cc(OC)c2OCc2ccc(OC)cc2)cc1` [Compound 33] the CC50 at 96 h [1] was 22.7 ± 0.9 µM and the IC50 ([2]; Peritoneal macrophage, 96 h) was ~3 µM.
For `CCCc1ccc(Oc2cc(CN3CCOCC3)cc(OC)c2OCc2ccc(OC)cc2)cc1` [Compound 34], the CC50 at 96 h [1] was > 200 µM and the IC50 ([2]; Peritoneal macrophage, 96 h) was 15.3 ± 1.9 µM.
For `CCCc1ccc(OCc2ccc(OC)cc2)c(Oc2ccc(CN3CCOCC3)cc2OC)c1` [Compound 35], the CC50 at 96 h [1] was 33.8 ± 4.9 µM and the “IC50 (μM) ± SD” value [2] was “inactive”.
In the case of `C=CCc1ccc(Oc2cc(CC=C)cc(OC)c2OCc2ccc(OC)cc2)cc1` [Compound 36], the CC50 at 96 h [1] is reported as > 200 µM.
`C=CCc1ccc(Oc2cc(CC=C)cc(OC)c2O)cc1` [Compound 37] showed a CC50 at 96 h [1] of 123 ± 9.4 µM.
In the case of `C=CCc1ccc(Oc2cc(CC=C)ccc2OCc2ccc(OC)cc2)c(OC)c1` [Compound 38], the CC50 at 96 h [1] is reported as > 200 µM.
Work on `C=CCc1ccc(O)c(Oc2ccc(CC=C)cc2OC)c1` [Compound 39] yielded a CC50 at 96 h [1] of 129 ± 5.2 µM.
Work on `CCCCCCCCCCCCCCCCOP(=O)([O-])OCC[N+](C)(C)C` [Milt., miltefosine, reference compound] yielded a CC50 at 96 h [1] of 120 ± 4.2 µM and an IC50 ([2]; Peritoneal macrophage, 96 h) of 6.5 ± 3 µM.
